The NIST ThermoML archive (doi:10.1021/acs.jced.9b00396)
Numbers after ± are expanded uncertainties.

Conditions: Liquid, Vibrating tube method

CC(=O)OCCC(C)C [3-methylbutyl ethanoate]
mass density [kg/m3]
Conditions	373.15 K	393.15 K	413.15 K	433.15 K	453.15 K	473.15 K
500 kPa	–	772 ± 1	750 ± 1	726 ± 1	701 ± 1	674 ± 1
1000 kPa	–	773 ± 1	751 ± 1	727 ± 1	703 ± 1	676 ± 1
2500 kPa	–	775 ± 1	754 ± 1	731 ± 1	707 ± 1	682 ± 1
5000 kPa	–	779 ± 1	759 ± 1	737 ± 1	714 ± 1	691 ± 1
7500 kPa	803 ± 1	783 ± 1	763 ± 1	742 ± 1	721 ± 1	698 ± 1
10000 kPa	806 ± 1	787 ± 1	768 ± 1	747 ± 1	727 ± 1	705 ± 1
12500 kPa	810 ± 1	791 ± 1	772 ± 1	752 ± 1	732 ± 1	712 ± 1
15000 kPa	813 ± 1	794 ± 1	776 ± 1	757 ± 1	737 ± 1	717 ± 1
17500 kPa	816 ± 1	798 ± 1	779 ± 1	761 ± 1	742 ± 1	723 ± 1
20000 kPa	818 ± 1	801 ± 1	783 ± 1	765 ± 1	747 ± 1	728 ± 1
22500 kPa	821 ± 1	804 ± 1	786 ± 1	769 ± 1	751 ± 1	733 ± 1
25000 kPa	824 ± 1	807 ± 1	790 ± 1	772 ± 1	755 ± 1	738 ± 1
27500 kPa	827 ± 1	810 ± 1	793 ± 1	776 ± 1	759 ± 1	742 ± 1
30000 kPa	829 ± 1	812 ± 1	796 ± 1	779 ± 1	763 ± 1	746 ± 1
32500 kPa	832 ± 1	815 ± 1	799 ± 1	783 ± 1	766 ± 1	750 ± 1
35000 kPa	834 ± 1	818 ± 1	802 ± 1	786 ± 1	770 ± 1	754 ± 1
37500 kPa	836 ± 1	820 ± 1	805 ± 1	789 ± 1	773 ± 1	757 ± 1
